PubChem BioAssay (NCI)
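Exposure lasted 48 hours, with cells grown in 96-well plates and compounds tested at five concentrations. Definition used: TGI = concentration required for complete inhibition of growth.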

Experiments:
Test in all cases: NCI anticancer screen, dose series, 48 h
RXF 393 renal = test system: RXF 393 renal
T-47D breast = test system: T-47D breast
MCF7 breast = test system: MCF7 breast
MDA-MB-231 breast = test system: MDA-MB-231 breast
MDA-N = test system: MDA-N
OVCAR-8 ovarian = test system: OVCAR-8 ovarian
786-0 renal = test system: 786-0 renal
MALME-3M melanoma = test system: MALME-3M melanoma
NCI-H522 lung = test system: NCI-H522 lung
KM12 colon = test system: KM12 colon
NCI-H226 lung = test system: NCI-H226 lung
COLO 205 colon = test system: COLO 205 colon
M14 melanoma = test system: M14 melanoma
SR leukemia = test system: SR leukemia
A549 NSCLC = test system: A549 NSCLC
UACC-257 melanoma = test system: UACC-257 melanoma
SK-MEL-28 melanoma = test system: SK-MEL-28 melanoma
DU-145 prostate = test system: DU-145 prostate
HCT-15 colon = test system: HCT-15 colon
MOLT-4 leukemia = test system: MOLT-4 leukemia
BT-549 breast = test system: BT-549 breast
SNB-19 CNS = test system: SNB-19 CNS
OVCAR-4 ovarian = test system: OVCAR-4 ovarian
SK-MEL-5 melanoma = test system: SK-MEL-5 melanoma
LOX IMVI melanoma = test system: LOX IMVI melanoma
K-562 leukemia = test system: K-562 leukemia
NCI-H460 lung = test system: NCI-H460 lung
SK-MEL-2 melanoma = test system: SK-MEL-2 melanoma
NCI/ADR-RES ovarian = test system: NCI/ADR-RES ovarian
HL-60(TB) leukemia = test system: HL-60(TB) leukemia
UACC-62 melanoma = test system: UACC-62 melanoma
RPMI-8226 leukemia = test system: RPMI-8226 leukemia
U251 CNS = test system: U251 CNS
IGROV1 ovarian = test system: IGROV1 ovarian
OVCAR-3 ovarian = test system: OVCAR-3 ovarian
HOP-92 NSCLC = test system: HOP-92 NSCLC
HCT-116 colon = test system: HCT-116 colon
PC-3 prostate = test system: PC-3 prostate
HS 578T breast = test system: HS 578T breast
HOP-62 NSCLC = test system: HOP-62 NSCLC
CAKI-1 renal = test system: CAKI-1 renal
SNB-75 CNS = test system: SNB-75 CNS
TK-10 renal = test system: TK-10 renal
SF-539 CNS = test system: SF-539 CNS
SK-OV-3 ovarian = test system: SK-OV-3 ovarian
ACHN renal = test system: ACHN renal
A498 renal = test system: A498 renal
MDA-MB-435 = test system: MDA-MB-435
CCRF-CEM leukemia = test system: CCRF-CEM leukemia
SF-295 CNS = test system: SF-295 CNS
SN12C renal = test system: SN12C renal
NCI-H23 lung = test system: NCI-H23 lung
SW-620 colon = test system: SW-620 colon

Measured: TGI

NC(=O)CC(N)C(N)=O (stereo not drawn)
> 100 µM: all assays above
